In assay [1] the target is T1, CK2α/CK2β interaction (human CK2α1–335, human CK2β1–193) (Homo sapiens, UniProt P68400).
T1 construct: human CK2α^1–335; made in house
T1 sequence (P68400 1-335): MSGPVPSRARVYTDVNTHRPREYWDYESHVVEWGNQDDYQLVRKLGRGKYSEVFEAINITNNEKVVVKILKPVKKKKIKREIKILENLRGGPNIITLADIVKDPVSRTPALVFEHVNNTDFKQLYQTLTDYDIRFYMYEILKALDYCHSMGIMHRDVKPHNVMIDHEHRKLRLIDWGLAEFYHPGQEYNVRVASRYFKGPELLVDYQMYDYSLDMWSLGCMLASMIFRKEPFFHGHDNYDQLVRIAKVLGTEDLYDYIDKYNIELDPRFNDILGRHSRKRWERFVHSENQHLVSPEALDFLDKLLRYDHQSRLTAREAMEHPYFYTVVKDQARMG
Put plainly: Microscale thermophoresis (MST) assay of the CK2α/CK2β subunit interaction. In kind it is binding. The note with it: for Ki / Inhibition of CK2α/CK2β Interaction Ki: MST, global analysis, KD′ = KD [1 + (ccompound/Ki)], n.s. = KD′ not significantly different from KD; for Ki: read-out: Inhibition of CK2α/CK2β Interaction Ki. The protocol:
A microscale thermophoresis (MST) assay was used to determine the interaction of the CK2α and CK2β subunits. In this assay, a constant concentration of the fluorescently labeled CK2β subunit was added to increasing concentrations of the CK2α subunit and the thermophoretic shift was recorded, respectively. […] The same experiment was performed in the presence of 20, 50, or 100 µM of the test compounds (see Table 1). An increased KD′ value in the presence of the test compounds was evaluated as the inhibition of the association of the CK2α and CK2β subunits. The increased KD′ value was then transformed together with the employed concentration of the test compound into the Ki value for the inhibition of the CK2α/CK2β association (formula see Supporting Information).
The compounds were investigated at a final concentration of 20, 50, or 100 µM. […] Data analysis and statistical evaluation were conducted with GraphPad Prism v.6 for Windows (GraphPad Software, La Jolla, CA, USA, www.graphpad.com).

For a further assay, the system named is CK2. The note with it: cited from earlier work.

Structures can show the parent of a compound that is named as a salt.

On to `COc1cc([C@@H]2c3c([nH]c4ccccc34)[C@@H](C(=O)O)[C@@H]3C(=O)NC(=O)[C@H]23)cc(OC)c1OC` (racemic) [(±)-10, (3aRS,4SR,10RS,10aRS)-1,3-Dioxo-10-(3,4,5-trimethoxyphenyl)-1,2,3,3a,4,5,10,10a-octahydropyrrolo[3,4-b]carbazole-4-carboxylic acid], for which, in assay [1], the Kd (as a rule, the constant that tells how readily two partners part at equilibrium) turned out to be 0.758 ± 0.338 µM and the Ki was 1.9 µM.
Taken in the same sequence, the figures for `COC(=O)[C@H](CCSC)NC(=O)[C@@H]1c2[nH]c3ccccc3c2[C@@H](c2cc(OC)c(OC)c(OC)c2)[C@H]2C(=O)NC(=O)[C@H]21` [(–)-19b, Methyl N-{[(3aR,4S,10R,10aR)-1,3-dioxo-10-(3,4,5-trimethoxyphenyl)-1,2,3,3a,4,5,10,10a-octahydropyrrolo[3,4-b]carbazol-4-yl]carbonyl}-(S)-methioninate] were 0.094 ± 0.024 µM and 7.7 µM.
For `COC(=O)[C@H](Cc1c[nH]cn1)NC(=O)[C@@H]1c2[nH]c3ccccc3c2[C@@H](c2cc(OC)c(OC)c(OC)c2)[C@H]2C(=O)NC(=O)[C@H]21` [(–)-20b, methyl N-{[(3aR,4S,10R,10aR)-1,3-dioxo-10-(3,4,5-trimethoxyphenyl)-1,2,3,3a,4,5,10,10a-octahydropyrrolo[3,4-b]carbazol-4-yl]carbonyl}-(S)-histidinate], in assay [1], the affinity, expressed as Kd, was 0.029 ± 0.007 µM and the “Inhibition of CK2α/CK2β Interaction Ki” value was “n.s”.
As to `COC(=O)[C@H](CO)NC(=O)[C@H]1c2[nH]c3ccccc3c2[C@H](c2cc(OC)c(OC)c(OC)c2)[C@@H]2C(=O)NC(=O)[C@@H]21` [(+)-18a, Methyl N-{[(3aS,4R,10S,10aS)-1,3-dioxo-10-(3,4,5-trimethoxyphenyl)-1,2,3,3a,4,5,10,10a-octahydropyrrolo[3,4-b]carbazol-4-yl]carbonyl}-(S)-serinate], in assay [1], the Kd is 0.072 ± 0.002 µM and the Ki was 9.1 µM.
On to `CCOC(=O)[C@@H]1c2[nH]c3ccccc3c2[C@@H](c2ccc(NC(=O)c3ccc(OC)cc3)cc2)[C@H]2C(=O)N(Cc3ccccc3)C(=O)[C@H]21` (racemic) [(±)-23, Ethyl (3aRS,4SR,10RS,10aRS)-2-benzyl-10-[4-(4-methoxybenzamido)phenyl]-1,3-dioxo-1,2,3,3a,4,5,10,10a-octahydropyrrolo[3,4-b]carbazole-4-carboxylate], for which, in assay [1], the Kd stood at 0.024 ± 0.009 µM and the “Inhibition of CK2α/CK2β Interaction Ki” value was “n.s”. Moreover, the “Inhibition of CK2α/CK2β Interaction Ki” value in assay [1] (listed as 23) is given as “did not result in a significant inhibition”.
With `COc1cc([C@@H]2c3c([nH]c4ccccc34)[C@@H](C(=O)NCc3ccc(Cl)cc3)[C@@H]3C(=O)NC(=O)[C@H]23)cc(OC)c1OC` (racemic) [(±)-13, (3aRS,4SR,10RS,10aRS)-N-(4-Chlorobenzyl)-1,3-dioxo-10-(3,4,5-trimethoxyphenyl)-1,2,3,3a,4,5,10,10a-octahydropyrrolo[3,4-b]carbazole-4-carboxamide], in assay [1], the Kd was found to be 0.017 ± 0.003 µM and the “Inhibition of CK2α/CK2β Interaction Ki” value is reported as “n.s”.
Consider `COc1cc([C@@H]2c3c([nH]c4ccccc34)[C@@H](C(=O)NCc3ccccc3)[C@@H]3C(=O)NC(=O)[C@H]23)cc(OC)c1OC` (racemic) [(±)-12, (3aRS,4SR,10RS,10aRS)-N-Benzyl-1,3-dioxo-10-(3,4,5-trimethoxyphenyl)-1,2,3,3a,4,5,10,10a-octahydropyrrolo[3,4-b]carbazole-4-carboxamide], for which, in assay [1], binding was characterised by a dissociation constant (Kd) of 0.062 ± 0.019 µM and the Ki turned out to be 14 µM.
`CCOC(=O)[C@H]1c2[nH]c3ccccc3c2[C@H](c2ccc(N)cc2)[C@@H]2C(=O)NC(=O)[C@@H]21` (racemic) [(±)-22a, Ethyl (3aRS,4SR,10RS,10aRS)-10-(4-aminophenyl)-1,3-dioxo-1,2,3,3a,4,5,10,10a-octahydropyrrolo[3,4-b]carbazole-4-carboxylate∙HCl]: in assay [1], the Kd was determined as 0.031 ± 0.011 µM and the “Inhibition of CK2α/CK2β Interaction Ki” value is listed as “n.s”.
On to `CNC(=O)[C@@H]1c2[nH]c3ccccc3c2[C@@H](c2cc(OC)c(OC)c(OC)c2)[C@H]2C(=O)NC(=O)[C@H]21` (racemic) [(±)-11, (3aRS,4SR,10RS,10aRS)-N-Methyl-1,3-dioxo-10-(3,4,5-trimethoxyphenyl)-1,2,3,3a,4,5,10,10a-octahydropyrrolo[3,4-b]carbazole-4-carboxamide], for which, in assay [1], the dissociation constant Kd came out at 0.132 ± 0.043 µM and the Ki was found to be 6 µM.
For the compound `CCOC(=O)[C@H]1c2[nH]c3ccccc3c2[C@H](c2ccc(N)cc2)[C@@H]2C(=O)N(Cc3ccccc3)C(=O)[C@@H]21` (racemic) [(±)-22c, Ethyl (3aRS,4SR,10RS,10aRS)-10-(4-aminophenyl)-2-benzyl-1,3-dioxo-1,2,3,3a,4,5,10,10a-octahydropyrrolo[3,4-b]carbazole-4-carboxylate∙HCl], in assay [1], binding was put at a Kd of 0.025 ± 0.015 µM and the “Inhibition of CK2α/CK2β Interaction Ki” value is listed as “n.s”. Also, in assay [1] (listed as 22c), the “Inhibition of CK2α/CK2β Interaction Ki” value is “did not result in a significant inhibition”.
On to `CCOC(=O)[C@@H]1c2[nH]c3ccccc3c2[C@@H](c2ccc([N+](=O)[O-])cc2)[C@H]2C(=O)NC(=O)[C@H]21` (racemic) [(±)-21a, Ethyl (3aRS,4SR,10RS,10aRS)-10-(4-nitrophenyl)-1,3-dioxo-1,2,3,3a,4,5,10,10a-octahydropyrrolo[3,4-b]carbazole-4-carboxylate], for which, in assay [1], binding was characterised by a dissociation constant (Kd) of 0.02 ± 0.01 µM and the “Inhibition of CK2α/CK2β Interaction Ki” value was “n.s”.
On to `NCc1cc(Cl)cc(-c2cccc3[nH]ccc23)c1` [CAM187], for which, in the assay on CK2, the “Effect on kinase activity of CK2” value is reported as “not significantly affected”.
For the compound `Cc1ccc(N/C=C2\C(=O)CCc3c2oc2c(Cl)c(Cl)c(O)cc32)cc1` [2a], the IC50 (commonly the concentration at which inhibition is half-maximal) in the assay on CK2 (ATP competitive, read-out: CK2 inhibition IC50) is 0.029 µM.
Turning to `CCOC(=O)[C@H]1c2[nH]c3ccccc3c2[C@H](c2cc(OC)c(OC)c(OC)c2)[C@@H]2C(=O)NC(=O)[C@@H]21` (racemic) [(±)-9a, Ethyl (3aRS,4SR,10RS,10aRS)-1,3-dioxo-10-(3,4,5-trimethoxyphenyl9a)-1,2,3,3a,4,5,10,10a-octahydropyrrolo[3,4-b]carbazole-4-carboxylate], in assay [1], the Kd turned out to be 0.059 ± 0.025 µM and the Ki came to 32 µM.
Taken in the same sequence, the figures for `COc1cc([C@@H]2c3c([nH]c4ccccc34)[C@@H](C(=O)Nc3cccnc3)[C@@H]3C(=O)NC(=O)[C@H]23)cc(OC)c1OC` (racemic) [(±)-15, (3aRS,4SR,10RS,10aRS)-1,3-Dioxo-N-(pyridin-3-yl)-10-(3,4,5-trimethoxyphenyl)-1,2,3,3a,4,5,10,10a-octahydropyrrolo[3,4-b]carbazole-4-carboxamide] were 0.089 ± 0.013 µM and 7.4 µM.
In the case of `CCOC(=O)[C@@H]1c2[nH]c3ccccc3c2[C@@H](c2cc(OC)c(OC)c(OC)c2)[C@H]2C(=O)N(C)C(=O)[C@H]21` (racemic) [(±)-9b, Ethyl (3aRS,4SR,10RS,10aRS)-2-methyl-1,3-dioxo-10-(3,4,5-trimethoxyphenyl)-1,2,3,3a,4,5,10,10a-octahydropyrrolo[3,4-b]carbazole-4-carboxylate], in assay [1], binding was characterised by a dissociation constant (Kd) of 0.014 ± 0.006 µM and the “Inhibition of CK2α/CK2β Interaction Ki” value is “n.s”.
`COc1cc([C@@H]2c3c([nH]c4ccccc34)[C@@H](C(=O)N3CCCCC3)[C@@H]3C(=O)NC(=O)[C@H]23)cc(OC)c1OC` (racemic) [(±)-16, (3aRS,4SR,10RS,10aRS)-4-[(Piperidin-1-yl)carbonyl]-10-(3,4,5-trimethoxyphenyl)-4,5,10,10a-tetrahydropyrrolo[3,4-b]carbazole-1,3(2H,3aH)-dione]: in assay [1], binding was put at a Kd of 0.072 ± 0.012 µM and the Ki amounted to 9.7 µM.
On to `COc1cc([C@@H]2c3c([nH]c4ccccc34)[C@@H](C(=O)Nc3nc4ccccc4[nH]3)[C@@H]3C(=O)NC(=O)[C@H]23)cc(OC)c1OC` (racemic) [(±)-17, (3aRS,4SR,10RS,10aRS)-N-(1H-Benzimidazol-2-yl)-1,3-dioxo-10-(3,4,5-trimethoxyphenyl)-1,2,3,3a,4,5,10,10a-octahydropyrrolo[3,4-b]carbazole-4-carboxamide], for which, in assay [1], the Kd was found to be 0.093 ± 0.013 µM and the Ki was found to be 7.1 µM.
Regarding `COc1cc([C@@H]2c3c([nH]c4ccccc34)[C@@H](C(=O)NCCc3c[nH]c4ccccc34)[C@@H]3C(=O)NC(=O)[C@H]23)cc(OC)c1OC` (racemic) [(±)-14, (3aRS,4SR,10RS,10aRS)-N-[2-(Indol-3-yl)ethyl]-1,3-dioxo-10-(3,4,5-trimethoxyphenyl)-1,2,3,3a,4,5,10,10a-octahydropyrrolo[3,4-b]carbazole-4-carboxamide], in assay [1], the Kd came to 0.158 ± 0.017 µM and the Ki is 3.8 µM.

These data come from PMC11722180, “Structure–Activity Relationship Studies of Tetracyclic Pyrrolocarbazoles Inhibiting Heterotetrameric Protein Kinase CK2” (Molecules, 2024).
